Laboratory results reported in patent US10596127B2, “Composition for reducing the frequency of urination, method of making and use thereof” (WELLESLEY PHARMACEUTICALS, LLC, priority 2013, dated 2020).

Tests used:
[1] = tested on: COX2 expression by normal human bladder smooth muscle cells; assay: Cell-based ELISA of total COX2 in normal human bladder smooth muscle cells; settings: for Total COX2 levels (Normalized RFUs) subject 1: mean of duplicates
Experimental: COX2 responses were analyzed by a Cell-Based ELISA using Human/mouse total COX2 immunoassay (R&D Systems), following the instructions of the manufacturer. Briefly, after cells fixation and permeabilization, a mouse anti-total COX2 and a rabbit anti-total GAPDH were added to the wells of the clear-bottom black 96-well cell culture microculture plates. After incubation and washes, an HRP-conjugated anti-mouse IgG and an AP-conjugated anti-rabbit IgG were added to the wells. Following another incubation and set of washes, the HRP- and AP-fluorogenic substrates were added. Finally, a Victor® V multilabel plate reader (PerkinElmer) was used to read the fluorescence emitted at 600 nm (COX2 fluorescence) and 450 nm (GAPDH fluorescence). Results are expressed as relative levels of total COX2 as determined by relative fluorescence unit (RFUs) and normalized to the housekeeping protein GAPDH.
Normal human bladder smooth muscle cells were isolated by enzymatic digestion from macroscopically normal pieces of human bladder. Cells were expended in vitro by culture at 37° C. in a 5% CO2 atmosphere in RPMI 1640 supplemented with 10% fetal bovine serum, 15 mM HEPES, 2 mM L-glutamine, 100 U/ml penicillin, and […] of streptomycin and passage once a week by treatment with trypsin to detach cells followed by reseeding in a new culture flask. The first week of culture, the culture medium was supplemented with 0.5 ng/ml epidermal growth factor, 2 ng/ml fibroblast growth factor, and 5 μg/ml insulin.
[…] When no other effectors were added to the cells, 50 μl of RPMI 1640 without fetal bovine serum were added to the wells to adjust the final volume to 200 μl.
After 24 hours of culture, 150 μl of culture supernatants were collected, spun down for 2 min at 8,000 rpm at 4° C. to remove cells and debris and stored at −70° C. for analysis of Prostaglandin E2 (PGE2) responses by ELISA. Cells were fixed, permeabilized and blocked for detection of COX2 using a fluorogenic substrate. In selected experiment cells were stimulated 12 hours in vitro for analysis of COX2, PGE2 and cytokine responses.
COX2 and PGE2 responses were analyzed as described in Example 3. Cytokine responses were analyzed as described in Example 2.

[2] = tested on: IL-6 secretion by normal human bladder smooth muscle cells; assay: IL-6 ELISA of normal human bladder smooth muscle cell supernatants; assay type: cell-based; settings: for IL-6 (pg/ml) Subject 2: LPS alone 4383; for IL-6 (pg/ml) Subject 1: LPS alone 4838, mean of duplicates
[3] = tested on: expression of co-stimulatory molecules by Raw 264 macrophage cells; assay: Flow cytometry of co-stimulatory molecules CD40 and CD80 on macrophages treated with analgesic, with or without LPS; assay type: cell-based, Murine
Experimental: Murine RAW264.7 or J774 macrophage cells (obtained from ATCC) were used in this study. Cells were maintained in a culture medium containing RPMI 1640 supplemented with 10% fetal bovine serum (FBS), 15 mM HEPES, 2 mM L-glutamine, 100 U/ml penicillin, and 100 μg/ml of streptomycin. Cells were cultured at 37° C. in a 5% CO2 atmosphere and split (passages) once a week.
RAW264.7 macrophage cells were seeded in 96-well plates at a cell density of 1.5×10^5 cells per well in 100 μl of the culture medium. […] Briefly, the analgesics were dissolved in FBS-free culture medium (i.e., RPMI 1640 supplemented with 15 mM HEPES, 2 mM L-glutamine, 100 U/ml penicillin, and 100 μg/ml of streptomycin), and diluted to desired concentrations by serial dilution with the same medium. For cells treated with analgesic in the absence of LPS, 50 μl of analgesic solution and 50 μl of FBS-free culture medium were added to each well. For cells treated with analgesic in the presence of LPS, 50 μl of analgesic solution and 50 μl of LPS (from Salmonella typhimurium) in FBS-free culture medium were added to each well. All conditions were tested in duplicates.
After 24 or 48 hours of culture, 150 μl of culture supernatants were collected, spun down for 2 min at 8,000 rpm at 4° C. to remove cells and debris and stored at −70° C. for analysis of cytokine responses by ELISA. The cells were collected and washed by centrifugation (5 min at 1,500 rpm at 4° C.) in 500 μl of Phosphate buffer (PBS). Half of the cells were then snap frozen in liquid nitrogen and stored at −70° C. The remaining cells were stained with fluorescent monoclonal antibodies and analyzed by flow cytometry.
For flow cytometry analysis, macrophages were diluted in 100 μl of FACS buffer (phosphate buffered saline (PBS) with 2% bovine serum albumin (BSA) and 0.01% NaN3) and stained 30 min at 4° C. by addition of FITC-conjugated anti-CD40, PE-conjugated anti-CD80, PE-conjugated anti-CD86 antibody, anti MHC class II (I-A^d) PE (BD Bioscience). Cells were then washed by centrifugation (5 min at 1,500 rpm at 4° C.) in 300 μl of FACS buffer. After a second wash, cells were re-suspended in 200 μl of FACS buffer and the percentage of cells expressing a given marker (single positive), or a combination of markers (double positive) were analyzed with the aid of an Accuri C6 flow cytometer (BD Biosciences).

[4] = Serum levels of analgesic in human blood after oral therapeutic doses; assay type: in vivo; settings: adult humans, conversion of mg/L by molecular weight
From the text: Table 3 summarizes the results of several studies that measured serum levels of analgesic after oral therapeutic doses in adult humans. […] Therefore, the doses of analgesic tested in vitro in Table 2 cover the range of concentrations achievable in vivo in humans.

[5] = LPS (10 μg/ml) plus analgesic 5 μM
[6] = LPS (10 μg/ml) plus analgesic 50 μM

SMILES: COc1ccc2cc([C@H](C)C(=O)O)ccc2c1 [Naproxen]
- Total COX2 levels (Normalized RFUs) subject 1 ([1]; Carbachol 10^−3 M plus analgesic 50 μM, carbachol alone 437, unstimulated 230): 296 Normalized RFUs
- Total COX2 levels (Normalized RFUs) subject 2 ([1]; Carbachol 10^−3 M plus analgesic 50 μM, carbachol alone 462, unstimulated 199): 354 Normalized RFUs
- Total COX2 levels (Normalized RFUs) subject 2 ([1]; LPS (10 μg/ml) plus analgesic 5 μM, LPS alone 633, unstimulated 199): 501 Normalized RFUs
- Total COX2 levels (Normalized RFUs) subject 1 ([1]; LPS (10 μg/ml) plus analgesic 5 μM, LPS alone 672, unstimulated 230): 458 Normalized RFUs
- Total COX2 levels (Normalized RFUs) subject 2 ([1]; LPS (10 μg/ml) plus analgesic 50 μM, LPS alone 633, unstimulated 199): 458 Normalized RFUs
- Total COX2 levels (Normalized RFUs) subject 1 ([1]; LPS (10 μg/ml) plus analgesic 50 μM, LPS alone 672, unstimulated 230): 409 Normalized RFUs
- effect on the effect of carbachol and LPS on COX2 levels ([1]; LPS-induced responses: analgesic at either 5 μM or 50 μM): suppress
- IL-6 (pg/ml) Subject 2 [2, 5]: 2229 pg/mL
- IL-6 (pg/ml) Subject 1 [2, 5]: 2077 pg/mL
- IL-6 (pg/ml) Subject 2 [2, 6]: 2028 pg/mL
- IL-6 (pg/ml) Subject 1 [2, 6]: 2102 pg/mL
- effect on expression of the co-stimulatory molecules at the highest dose ([3]; 5 × 10^6 nM): enhance
- effect on basal expression of co-stimulatory molecules CD40 and CD80 by macrophages ([3]; 5 × 10^5, 5 × 10^4, 5 × 10^3, 5 × 10^2, 50 and 5 nM): inhibit
- % Positive CD40+CD80+ ([3]; analgesic alone, 5 nM, negative control 20.6): 5.2%
- % Positive CD40+CD80+ ([3]; analgesic alone, 50 nM, negative control 20.6): 6.8%
- % Positive CD40+CD80+ ([3]; analgesic alone, 500 nM, negative control 20.6): 7.2%
- % Positive CD40+CD80+ ([3]; analgesic alone, 5 × 10^3 nM, negative control 20.6): 6.9%
- % Positive CD40+CD80+ ([3]; analgesic alone, 5 × 10^4 nM, negative control 20.6): 7.7%
- % Positive CD40+CD80+ ([3]; analgesic alone, 5 × 10^5 nM, negative control 20.6): 9.6%
- % Positive CD40+CD80+ ([3]; analgesic alone, 5 × 10^6 nM, negative control 20.6): 37%
- % Positive CD40+CD80+ ([3]; analgesic plus LPS, analgesic 5 nM, LPS 5 ng/ml alone 77.8): 73%
- % Positive CD40+CD80+ ([3]; analgesic plus LPS, analgesic 50 nM, LPS 5 ng/ml alone 77.8): 72%
- % Positive CD40+CD80+ ([3]; analgesic plus LPS, analgesic 500 nM, LPS 5 ng/ml alone 77.8): 68.8%
- % Positive CD40+CD80+ ([3]; analgesic plus LPS, analgesic 5 × 10^3 nM, LPS 5 ng/ml alone 77.8): 71.0%
- % Positive CD40+CD80+ ([3]; analgesic plus LPS, analgesic 5 × 10^4 nM, LPS 5 ng/ml alone 77.8): 77.1%
- % Positive CD40+CD80+ ([3]; analgesic plus LPS, analgesic 5 × 10^5 nM, LPS 5 ng/ml alone 77.8): 74.1%
- % Positive CD40+CD80+ ([3]; analgesic plus LPS, analgesic 5 × 10^6 nM, LPS 5 ng/ml alone 77.8): 66.0%
- Maximum serum levels after oral therapeutic doses [4]: ≤ 260 µM
